Species: Rattus norvegicus
Experiment: DrugMatrix - Regimen: Daily Repeat
Format: toxicity, organism-based, Sprague-Dawley
Set-up: regimen Daily Repeat, gender Male, age 6-8 weeks
Settings: in vivo, po, 0 mg/kg, route oral GAVAGE, dose level Control, vehicle .5 % CMC; for ABSOLUTE BASOPHIL / ABSOLUTE EOSINOPHIL / ABSOLUTE LYMPHOCYTE / ABSOLUTE MONOCYTE / ABSOLUTE SEGMENTED NEUTROPHIL / BASOPHIL / EOSINOPHIL / ERYTHROCYTE COUNT / HEMATOCRIT / HEMOGLOBIN / LEUKOCYTE COUNT / LYMPHOCYTE / MEAN CORPUSCULAR HEMOGLOBIN / MEAN CORPUSCULAR HEMOGLOBIN CONCENTRATION / MEAN CORPUSCULAR VOLUME / MONOCYTE / NEUTROPHIL / NUCLEATED RED BLOOD CELLS / PLATELET COUNT: tissue Blood; for ALANINE AMINOTRANSFERASE / ALBUMIN / ALKALINE PHOSPHATASE / ASPARTATE AMINOTRANSFERASE / BLOOD UREA NITROGEN / CARBON DIOXIDE / CHLORIDE / CHOLESTEROL / CREATININE / GLUCOSE / LACTATE DEHYDROGENASE / LIPASE / PHOSPHORUS / POTASSIUM / SODIUM / TOTAL BILIRUBIN / TOTAL PROTEIN / URIC ACID: tissue Plasma

ClC(Cl)Br [BROMODICHLOROMETHANE]
ABSOLUTE BASOPHIL (72 h, time 3 day): 0 CELLS/uL
ABSOLUTE EOSINOPHIL (72 h, time 3 day): 279.83 CELLS/uL
ABSOLUTE LYMPHOCYTE (72 h, time 3 day): 13152.5 CELLS/uL
ABSOLUTE MONOCYTE (72 h, time 3 day): 1013.83 CELLS/uL
ABSOLUTE SEGMENTED NEUTROPHIL (72 h, time 3 day): 2420.5 CELLS/uL
BASOPHIL (72 h, time 3 day): 0%
EOSINOPHIL (72 h, time 3 day): 1.67%
ERYTHROCYTE COUNT (72 h, time 3 day): 5.26 x10E6/uL
HEMATOCRIT (72 h, time 3 day): 32.22%
HEMOGLOBIN (72 h, time 3 day): 12.02 G/DL
LEUKOCYTE COUNT (72 h, time 3 day): 16.87 x10E3/uL
LYMPHOCYTE (72 h, time 3 day): 77.83%
MEAN CORPUSCULAR HEMOGLOBIN (72 h, time 3 day): 22.93 pg
MEAN CORPUSCULAR HEMOGLOBIN CONCENTRATION (72 h, time 3 day): 37.32 G/DL
MEAN CORPUSCULAR VOLUME (72 h, time 3 day): 61.4 fL
MONOCYTE (72 h, time 3 day): 6%
NEUTROPHIL (72 h, time 3 day): 14.5%
NUCLEATED RED BLOOD CELLS (72 h, time 3 day): 0 /100WBC
PLATELET COUNT (72 h, time 3 day): 1122.17 x10E3/uL
ALANINE AMINOTRANSFERASE (72 h, time 3 day): 55.67 u/L
ALBUMIN (72 h, time 3 day): 4.35 G/DL
ALKALINE PHOSPHATASE (72 h, time 3 day): 362.67 u/L
ASPARTATE AMINOTRANSFERASE (72 h, time 3 day): 96 u/L
BLOOD UREA NITROGEN (72 h, time 3 day): 18 mg/dL
CARBON DIOXIDE (72 h, time 3 day): 27.5 mmol/L
CHLORIDE (72 h, time 3 day): 100.17 MEQ/L
CHOLESTEROL (72 h, time 3 day): 74.5 mg/dL
CREATININE (72 h, time 3 day): 0.17 mg/dL
GLUCOSE (72 h, time 3 day): 141.67 mg/dL
LACTATE DEHYDROGENASE (72 h, time 3 day): 682.5 u/L
LIPASE (72 h, time 3 day): 10 u/L
PHOSPHORUS (72 h, time 3 day): 11.5 mg/dL
POTASSIUM (72 h, time 3 day): 6.41 MEQ/L
SODIUM (72 h, time 3 day): 141.2 MEQ/L
TOTAL BILIRUBIN (72 h, time 3 day): 0.18 mg/dL
TOTAL PROTEIN (72 h, time 3 day): 5.88 G/DL
URIC ACID (72 h, time 3 day): 1.4 mg/dL
ABSOLUTE BASOPHIL (120 h, time 5 day): 0 CELLS/uL
ABSOLUTE EOSINOPHIL (120 h, time 5 day): 18.5 CELLS/uL
ABSOLUTE LYMPHOCYTE (120 h, time 5 day): 8146.83 CELLS/uL
ABSOLUTE MONOCYTE (120 h, time 5 day): 204.83 CELLS/uL
ABSOLUTE SEGMENTED NEUTROPHIL (120 h, time 5 day): 1329.83 CELLS/uL
BASOPHIL (120 h, time 5 day): 0%
EOSINOPHIL (120 h, time 5 day): 0.17%
ERYTHROCYTE COUNT (120 h, time 5 day): 5.37 x10E6/uL
HEMATOCRIT (120 h, time 5 day): 33.17%
HEMOGLOBIN (120 h, time 5 day): 12.07 G/DL
LEUKOCYTE COUNT (120 h, time 5 day): 9.7 x10E3/uL
LYMPHOCYTE (120 h, time 5 day): 85.33%
MEAN CORPUSCULAR HEMOGLOBIN (120 h, time 5 day): 22.52 pg
MEAN CORPUSCULAR HEMOGLOBIN CONCENTRATION (120 h, time 5 day): 36.42 G/DL
MEAN CORPUSCULAR VOLUME (120 h, time 5 day): 61.78 fL
MONOCYTE (120 h, time 5 day): 1.83%
NEUTROPHIL (120 h, time 5 day): 12.67%
NUCLEATED RED BLOOD CELLS (120 h, time 5 day): 0 /100WBC
PLATELET COUNT (120 h, time 5 day): 907.5 x10E3/uL
ALANINE AMINOTRANSFERASE (120 h, time 5 day): 58.5 u/L
ALBUMIN (120 h, time 5 day): 4.4 G/DL
ALKALINE PHOSPHATASE (120 h, time 5 day): 377.67 u/L
ASPARTATE AMINOTRANSFERASE (120 h, time 5 day): 140.33 u/L
BLOOD UREA NITROGEN (120 h, time 5 day): 15.33 mg/dL
CARBON DIOXIDE (120 h, time 5 day): 32.17 mmol/L
CHLORIDE (120 h, time 5 day): 100 MEQ/L
CHOLESTEROL (120 h, time 5 day): 71.83 mg/dL
CREATININE (120 h, time 5 day): 0.18 mg/dL
GLUCOSE (120 h, time 5 day): 185 mg/dL
LACTATE DEHYDROGENASE (120 h, time 5 day): 241.5 u/L
LIPASE (120 h, time 5 day): 9.5 u/L
PHOSPHORUS (120 h, time 5 day): 13.02 mg/dL
POTASSIUM (120 h, time 5 day): 6.45 MEQ/L
SODIUM (120 h, time 5 day): 143.45 MEQ/L
TOTAL BILIRUBIN (120 h, time 5 day): 0.22 mg/dL
TOTAL PROTEIN (120 h, time 5 day): 6.1 G/DL
URIC ACID (120 h, time 5 day): 1 mg/dL
ABSOLUTE BASOPHIL ([…], time 14 day): 0 CELLS/uL
ABSOLUTE EOSINOPHIL ([…], time 14 day): 117.17 CELLS/uL
ABSOLUTE LYMPHOCYTE ([…], time 14 day): 13562 CELLS/uL
ABSOLUTE MONOCYTE ([…], time 14 day): 534.83 CELLS/uL
ABSOLUTE SEGMENTED NEUTROPHIL ([…], time 14 day): 2486 CELLS/uL
BASOPHIL ([…], time 14 day): 0%
EOSINOPHIL ([…], time 14 day): 0.83%
ERYTHROCYTE COUNT ([…], time 14 day): 6.14 x10E6/uL
HEMATOCRIT ([…], time 14 day): 36.87%
HEMOGLOBIN ([…], time 14 day): 13.87 G/DL
LEUKOCYTE COUNT ([…], time 14 day): 16.7 x10E3/uL
LYMPHOCYTE ([…], time 14 day): 81%
MEAN CORPUSCULAR HEMOGLOBIN ([…], time 14 day): 22.63 pg
MEAN CORPUSCULAR HEMOGLOBIN CONCENTRATION ([…], time 14 day): 37.62 G/DL
MEAN CORPUSCULAR VOLUME ([…], time 14 day): 60.15 fL
MONOCYTE ([…], time 14 day): 3.17%
NEUTROPHIL ([…], time 14 day): 15%
NUCLEATED RED BLOOD CELLS ([…], time 14 day): 0 /100WBC
PLATELET COUNT ([…], time 14 day): 974.83 x10E3/uL
ALANINE AMINOTRANSFERASE ([…], time 14 day): 52.33 u/L
ALBUMIN ([…], time 14 day): 4.48 G/DL
ALKALINE PHOSPHATASE ([…], time 14 day): 346.17 u/L
ASPARTATE AMINOTRANSFERASE ([…], time 14 day): 81 u/L
BLOOD UREA NITROGEN ([…], time 14 day): 15.67 mg/dL
CARBON DIOXIDE ([…], time 14 day): 34.33 mmol/L
CHLORIDE ([…], time 14 day): 100.17 MEQ/L
CHOLESTEROL ([…], time 14 day): 70.83 mg/dL
CREATININE ([…], time 14 day): 0.22 mg/dL
GLUCOSE ([…], time 14 day): 141.17 mg/dL
LACTATE DEHYDROGENASE ([…], time 14 day): 121.33 u/L
LIPASE ([…], time 14 day): 8.33 u/L
PHOSPHORUS ([…], time 14 day): 9.97 mg/dL
POTASSIUM ([…], time 14 day): 6.4 MEQ/L
SODIUM ([…], time 14 day): 143.72 MEQ/L
TOTAL BILIRUBIN ([…], time 14 day): 0.22 mg/dL
TOTAL PROTEIN ([…], time 14 day): 6.45 G/DL
URIC ACID ([…], time 14 day): 1.25 mg/dL

Reference: ChEMBL document CHEMBL3885881, “DrugMatrix”
